From patent US20220088195A1, “Prevention or mitigation of T-cell bispecific antibody-related adverse effects” (Hoffmann-La Roche Inc., priority 2020, published 2022)
“Also recorded” adds a separate entry of the source.

Assays:
[1] = blood of mice; cited from earlier work
[2] = tested on: IFN-γ, IL-2 and TNF-α release; experiment: Cytokine release after second stimulation with HLA-A2 WT-1-TCB in the SKM-1 assay (Luminex); assay type: cell-based, human; details: 100 nM dasatinib, versus positive control ON/ON
Description: FIG. 12. Cytokine release after the second stimulation with HLA-A2 WT-1-TCB with and without dasatinib. Supernatants from the killing assay of FIG. 8 were collected 24 hours after the second stimulation and IFN-γ (A), TNF-α (B) and IL-2 (C) were measured with a multiplex cytokine kit (Luminex technology). n=3 donors.
To assess whether dasatinib can efficiently prevent TCB-mediated target cell killing by activated T cells, we set up an in vitro killing assay with two stimulation steps, mimicking an ON/OFF switch. During the first stimulation, PBMCs were activated on carboxyfluorescein succinimidyl ester (CFSE)-labelled SKM-1 tumors cells with HLA-A2 WT-1-TCB in the absence of dasatinib (ON). During the second stimulation, activated PBMCs together with dead CFSE labelled SKM-1 tumors cells were washed and re-stimulated by HLA-A2 WT-1-TCB on fresh CTV labelled SKM-1 tumor cells in the presence of 100 nM dasatinib (OFF). The use of CFSE and CTV labelled SKM-1 tumors allowed to differentiate tumor cells used for first and second stimulation by flow cytometry (FIG. 8). […] Consistently, T cells were activated and functional before the addition of dasatinib in the system. […]

CD4+ and CD8+ T cells [3] = experiment: T cell proliferation (CTV dye dilution) and T cell counts in SKM-1 killing assay with HLA-A2 WT-1-TCB; assay type: cell-based, human
Description: FIG. 3. In vitro killing assay set-up and timelines. PBMCs were co-cultured with SKM-1 target cells (E:T=10:1) and 10 nM HLA-A2 WT-1-TCB. Dasatinib (100 nM) was added after 24 hours of activation. PBMCs were labelled with CellTrace™ Violet (CTV) to allow T cell proliferation assessment.
FIG. 6. T cell proliferation. In the assay of FIG. 3, proliferation of CD4+ (A) and CD8+ (B) T cells was measured by FACS 144h after stimulation with HLA-A2 WT-1 TCB by analysis of CTV dye dilution.
FIG. 7. Counts of CD4+ and CD8+ T cells. In the assay of FIG. 3, CD4+ (A) and CD8+(B) T cells counts were measured by FACS, mean of 3 donors+/−SD. paired t test, one tailed p value: 0.1234 (ns), 0.0332 (*), 0.0021 (**), 0.0002 (***), <0.0001 (****).
Furthermore, we assessed T cell proliferation 120 hours after the addition of 100 nM dasatinib in the killing assay by measuring the dilution peaks of the CellTrace™ violet (CTV) dye by flow cytometry.

CD4+ and CD8+ T cells [4] = experiment: CD19-TCB-induced T cell activation (CD69, CD25) in the SUDLH-8 assay; assay type: cell-based, human; details: 100 nM dasatinib, 24 hrs; monohydrate
Description: FIG. 28. […] The expression of CD69 (A) and CD25 (B) on CD4+ T cells was measured by flow cytometry at 24 hrs in the assay described in FIG. 26. Mean of n=3 donors+SD. One way ANOVA, Friedman test, p-value: 0.1234 (ns), 0.0332 (*), 0.0021 (**), 0.0001 (***), <0.0001 (****).
FIG. 29. […] The expression of CD69 (A) and CD25 (B) on CD8+ T cells was measured by flow cytometry at 24 hrs in the assay described in FIG. 26. Mean of n=3 donors+SD. One way ANOVA, Friedman test, p-value: 0.1234 (ns), 0.0332 (*), 0.0021 (**), 0.0001 (***), <0.0001 (****).
The killing of CTV labelled SUDLH-8 cells was measured by flow cytometry using a Live/Dead Near Infra Red (NIR) dye. […] The expression of CD69 and CD25 were measured on CD4+ (FIG. 28) and CD8+(FIG. 29) T cells by flow cytometry as a readout for T cell activation. […] Lastly, the cytokine levels were analyzed in the supernatants of the assay by Luminex to evaluate the effect of dasatinib on CD19-TCB-induced cytokine release (FIGS. 30 and 31).

For `Cc1nc(Nc2ncc(C(=O)Nc3c(C)cccc3Cl)s2)cc(N2CCN(CCO)CC2)n1` [dasatinib, N-(2-chloro-6-methylphenyl)-2-[[6-[4-(2-hydroxyethyl)-1-piperazinyl]-2-methyl-4-pyrimidinyl]amino]-5-thiazole carboxamide monohydrate], which half-life [1] is on record?
Its half-life is “around 6 hrs”.

What about the “IFN-γ, IL-2 and TNF-α release upon re-stimulation” value [2] of the same compound?
The value was “fully inhibited”.

What about the “TCB-induced T cell proliferation (CTV dilution)” value (CD4+ and CD8+ T cells [3]; 100 nM dasatinib added at 24 h, 120 hours after addition, 10 nM HLA-A2 WT-1-TCB) of the same compound?
The value was “inhibited TCB-induced T cell proliferation with a stronger impact on CD4+ T cells than CD8+ T cells”.

What about the “CD4+ and CD8+ T cell counts” value (CD4+ and CD8+ T cells [3]; 100 nM dasatinib versus positive control without dasatinib) of the same compound?
Its value is “significantly higher in positive control samples which were not treated with 100 nM dasatinib, than in samples treated with 100 nM dasatinib”.

What about the “CD19-TCB-induced CD4+ and CD8+ T cell activation (CD69, CD25)” value (CD4+ and CD8+ T cells [4]) of the same compound?
The value was “prevents CD19-TCB-induced CD4+ T cell activation; also recorded: prevents CD19-TCB-induced CD8+ T cell activation; also recorded: prevented CD4+ and CD8+ T cell activation”.
